# Values of other authors in PubChem BioAssay AID1259409 (Chemical Carcinogenesis Research Information System (CCRIS), 2018).
# Test system: rodent chemically induced tumor inhibition, incidence and multiplicity
# Experiment: CCRIS tumor inhibitor studies
# Conditions: Dose [Inhibitor]: 0
structure (smiles),measurement,setting,value
O=c1oc2c(O)c(O)cc3c(=O)oc4c(O)c(O)cc1c4c23,"tumour outcome (control, treated, inhibition, significance)","Carcinogen: 4-(METHYLNITROSOAMINO-1-(PYRIDYL)-1-BUTANONE, 64091-91-4, 4 G/KG DIET BEGINNING 2 WK PRIOR TO CARCINOGEN DOSE (STUDY DURATION: 18 WK), Route [Inhibitor]: ORAL, Species: MOUSE, Strain/Sex: STRAIN-A/FEMALE, Target Tissue: Type of Lesion: LUNG: ADENOMA, Dose [Carcinogen]: 2 MG IN 0.2 ML OF 0.9% NACL ONCE, Promoter: NONE USED","100%, 100%, 0%, not significant"
same,"tumour outcome (control, treated, inhibition, significance)","Carcinogen: 4-METHYLNITROSOAMINO-1-(PYRIDYL)-1-BUTANONE, 64091-91-4, 4 G/KG DIET BEGINNING 2 WK PRIOR TO CARCINOGEN DOSE AND CONTINUING FOR STUDY DURATION (STUDY DURATION: 18 WK), Route [Inhibitor]: ORAL, Species: MOUSE, Strain/Sex: STRAIN-A/FEMALE, Target Tissue: Type of Lesion: LUNG: ADENOMA, Dose [Carcinogen]: 62.4 UG/ML DRINKING WATER FOR 7 WK (TOTAL DOSE 9.4 MG), Promoter: NONE USED","100%, 96%, 4%, not calculated"
same,"tumour outcome (control, treated, inhibition, significance)","Carcinogen: 4-NITROQUINOLINE-1-OXIDE, 56-57-5, 400 PPM IN DIET FOR 7 WK BEGINNING 1 WK PRIOR TO START OF CARCINOGEN TREATMENT (STUDY DURATION: 32 WK), Route [Inhibitor]: ORAL, Species: RAT, Strain/Sex: F344/MALE, Target Tissue: Type of Lesion: TONGUE: PAPILLOMA, Dose [Carcinogen]: 20 PPM IN DRINKING WATER FOR 5 WK, Promoter: NONE USED","1/15 (7%), 0/15 (0%), 100%, not significant"
same,"tumour outcome (control, treated, inhibition, significance)","Carcinogen: 7,12-DIMETHYLBENZ[A]ANTHRACENE, 57-97-6', 1000 PPM IN DIET FOR DURATION OF STUDY BEGINNING CONCURRENTLY WITH CARCINOGEN TREATMENT (STUDY DURATION: 42 WK0, Route [Inhibitor]: ORAL, Species: FISH, Strain/Sex: RAINBOW TROUT/ MALE, FEMALE, Target Tissue: Type of Lesion: LIVER: TUMOR, Dose [Carcinogen]: 750 PPM IN DIET FOR 7 WK, Promoter: NONE USED","6%, 9%, -50%, not significant"
same,"tumour outcome (control, treated, inhibition, significance)","Carcinogen: 7,12-DIMETHYLBENZ[A]ANTHRACENE, 57-97-6, 5 UMOL IN 0.4 ML ACETONE 20 MIN PRIOR TO EACH PROMOTER DOSE (STUDY DURATION: 47 WK), Route [Inhibitor]: DERMAL, Species: MOUSE, Strain/Sex: CF-1/FEMALE, Target Tissue: Type of Lesion: SKIN: CARCINOMA, Dose [Carcinogen]: 100 NMOL IN 0.2 ML ACETONE ONCE","67%, 17%, 75%, not calculated"
same,"tumour outcome (control, treated, inhibition, significance)","Carcinogen: 7,12-DIMETHYLBENZ[A]ANTHRACENE, 57-97-6, 5 UMOL IN 0.4 ML ACETONE 20 MIN PRIOR TO EACH PROMOTER DOSE (STUDY DURATION: 47 WK), Route [Inhibitor]: DERMAL, Species: MOUSE, Strain/Sex: CF-1/FEMALE, Target Tissue: Type of Lesion: SKIN: PAPILLOMA, Dose [Carcinogen]: 100 NMOL IN 0.2 ML ACETONE ONCE","94%, 54%, 43%, not calculated"
same,"tumour outcome (control, treated, inhibition, significance)","Carcinogen: 7,12-DIMETHYLBENZ[A]ANTHRACENE, 57-97-6, 100 PPM IN DIET FOR 19 WK BEGINNING POST CARCINOGEN TREATMENT (STUDY DURATION: 42 WK), Route [Inhibitor]: ORAL, Species: FISH, Strain/Sex: RAINBOW TROUT/ MALE, FEMALE, Target Tissue: Type of Lesion: STOMACH: TUMOR, Dose [Carcinogen]: 4.16 PPM IN WATER FOR 1 HR, Promoter: NONE USED","97%, 65%, 33%, p<0.001"
same,"tumour outcome (control, treated, inhibition, significance)","Carcinogen: 7,12-DIMETHYLBENZ[A]ANTHRACENE, 57-97-6, 100 PPM IN DIET FOR 19 WK BEGINNING POST CARCINOGEN TREATMENT (STUDY DURATION: 42 WK), Route [Inhibitor]: ORAL, Species: FISH, Strain/Sex: RAINBOW TROUT/ MALE, FEMALE, Target Tissue: Type of Lesion: SWIM BLADDER: TUMOR, Dose [Carcinogen]: 4.16 PPM IN WATER FOR 1 HR, Promoter: NONE USED","14%, 14%, 0%, not significant"
same,"tumour outcome (control, treated, inhibition, significance)","Carcinogen: 7,12-DIMETHYLBENZ[A]ANTHRACENE, 57-97-6, 250 PPM IN DIET FOR 19 WK BEGINNING POST CARCINOGEN TREATMENT (STUDY DURATION: 42 WK), Route [Inhibitor]: ORAL, Species: FISH, Strain/Sex: RAINBOW TROUT/ MALE, FEMALE, Target Tissue: Type of Lesion: LIVER: TUMOR, Dose [Carcinogen]: 4.16 PPM IN WATER FOR 1HR, Promoter: NONE USED","7%, 17%, -143%, p<0.001"
same,"tumour outcome (control, treated, inhibition, significance)","Carcinogen: 7,12-DIMETHYLBENZ[A]ANTHRACENE, 57-97-6, 250 PPM IN DIET FOR 19 WK BEGINNING POST CARCINOGEN TREATMENT (STUDY DURATION: 42 WK), Route [Inhibitor]: ORAL, Species: FISH, Strain/Sex: RAINBOW TROUT/ MALE, FEMALE, Target Tissue: Type of Lesion: STOMACH: TUMOR, Promoter: NONE USED","97%, 39%, 60%, p<0.001"
same,"tumour outcome (control, treated, inhibition, significance)","Carcinogen: 7,12-DIMETHYLBENZ[A]ANTHRACENE, 57-97-6, 250 PPM IN DIET FOR 19 WK BEGINNING POST CARCINOGEN TREATMENT (STUDY DURATION: 42 WK), Route [Inhibitor]: ORAL, Species: FISH, Strain/Sex: RAINBOW TROUT/MALE, FEMALE, Target Tissue: Type of Lesion: SWIM BLADDER: TUMOR, Dose [Carcinogen]: 4.16 PPM IN WATER FOR 1HR, Promoter: NONE USED","14%, 13%, 7%, not significant"
same,"tumour outcome (control, treated, inhibition, significance)","Carcinogen: 7,12-DIMETHYLBENZ[A]ANTHRACENE, 57-97-6, 1000 PPM IN DIET FOR 17 WK BEGINNING POST CARCINOGEN TREATMENT (STUDY DURATION: 42 WK), Route [Inhibitor]: ORAL, Species: FISH, Strain/Sex: RAINBOW TROUT/ MALE, FEMALE, Target Tissue: Type of Lesion: STOMACH: TUMOR, Dose [Carcinogen]: 5.5 PPM IN WATER FOR 1 HR, Promoter: NONE USED","88%, 26%, 70%, p<0.001"
